# From ChEMBL document CHEMBL1158981, “An Unusual Sulfur-Containing Diketopiperazine from the Bermudian Sponge Tedania ignis” (J Nat Prod, 1991)
# Test system: Artemia
# Experiment: Toxicity against brine shrimp
# Format: organism-based
# Details: in vivo
smiles,measurement,value
O=C1[C@@H]2CCCN2C(=O)[C@H]2CSCN12,Activity,Non-toxic
